Among the test systems are MDA-MB-231; MCF7; LOX IMVI; SK-MEL-2; NCI-H460; KM12; XF498; PC-3; DMS-114; SW-620; DMS-273; LXFL 529; HCT-15; Hs-578T; IGROV-1; SF-268; RXF 393; TK-10; UACC-257; SNB-19.
What all share (assay): NCI anticancer screen, dose series, 48 h

The structures appear in SMILES notation.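 Grown in 96-well plates, cells were treated for 48 hours with each compound at five concentrations. Insufficient inhibition: endpoint recorded as highest concentration tested. GI50 = concentration required for 50% inhibition of growth.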 Active and inactive are the calls of the source. Rule as the data show it: active = GI50 up to about 1.1 µM and inactive = higher. A value given as a limit tells only on which side of the number the result lay.

Experimental findings from ChEMBL document CHEMBL1201862, “PubChem BioAssay data set” (2004) are described below.

Consider `COc1ccc(/C=c2/s/c(=C(\C#N)c3nc4ccccc4[nH]3)n(-c3ccccc3)c2=O)cc1`, for which the GI50 with MDA-MB-231 is 18.7 µM (inactive); in the assay on MCF7 it was 45.1 µM (inactive); with LOX IMVI it was 36.9 µM (inactive); in the assay on SK-MEL-2, > 77.6 µM (inactive); in the assay on NCI-H460 it was 9.75 µM (inactive); with KM12 it was 56.6 µM (inactive). The GI50 is 30.1 µM (inactive) in the assay on XF498; 24 µM (inactive) with PC-3; 91 µM (inactive) in the assay on DMS-114; 25.2 µM (inactive) with SW-620; 36.8 µM (inactive) in the assay on DMS-273; 2.32 µM (inactive) in the assay with LXFL 529. In addition, the GI50 with HCT-15 was over 53.6 µM; in the assay on Hs-578T, 4.45 µM (inactive); in the assay on IGROV-1 it was > 54.5 µM (inactive); in the assay with SF-268, 31.7 µM (inactive); in the assay on RXF 393 it was 36 µM (inactive); with TK-10, > 52.7 µM (inactive). Further, the values for the GI50 in the assay with UACC-257 and in the assay with SNB-19 were > 100 µM (inactive) and 47.1 µM (inactive), respectively.
